# Measurements taken from patent US20250339569A1, “CARBONIC ANHYDRASE IX LIGANDS” (priority 2021, published 2025).
# Read-outs that look alike come from different tables or passages of the source. Starred links: 1 amine or outer side, 2 acyl side, 3 side chain; linkers in the order of their positions; H or OH if unused. Positions of bridges follow the written chain, without caps; N, C: chain ends. Non-standard residues stand in square brackets, D forms with d. Residues, ends and D or L forms follow the SMILES beside them. *: point of attachment. Phe(3-NHCO(CH2)3SO2NH2) = N[C@@H](Cc1cccc(NC(=O)CCCS(N)(=O)=O)c1)C(=O)O; X32 = CC(=O)N[C@H](CC(=O)O)C(=O)Nc1cccc(C[C@@H](N[*:1])C(=O)[*:2])c1; X21 = NS(=O)(=O)CCC(=O)Nc1cccc(C[C@H](N[*:1])C(=O)[*:2])c1; DOTA = O=C(O)CN1CCN(CC(=O)O)CCN(CC(=O)*)CCN(CC(=O)O)CC1; X15 = O=C(O)COCC(=O)Nc1cccc(C[C@H](N[*:1])C(=O)[*:2])c1; Trp(5-Cl) = N[C@@H](Cc1c[nH]c2ccc(Cl)cc12)C(=O)O; X19 = O=C([C@H](CS(=O)(=O)Cc1ccccc1)N[*:1])[*:2]; mXylylene = c1cc(C[*:1])cc(C[*:2])c1; Bta = N[C@@H](Cc1csc2ccccc12)C(=O)O; X2 = O=C(CN1CCC(N[*:1])CC1)[*:2]; 3Amb = NCc1cccc(C(=O)O)c1; X29 = c1cc2cn[nH]c2cc1CN*; dPip = O=C(O)[C@H]1CCCCN1; Dap = NC[C@H](N)C(=O)O; Sar = CNCC(=O)O
# Legend:
# [1] = molecular target: T1, human carbonic anhydrase IX (hCAIX-Fc) (Homo sapiens, UniProt Q16790); test: Surface plasmon resonance assay with hCAIX-Fc; type: binding; conditions: 25° C.; for t1/2 category (activity): SPR dissociation half-life, hCAIX-Fc; for Kd: SPR, hCAIX-Fc captured, read-out: pKD category (activity) (converted)
# T1 construct: purchased SinoBliological (Sino Biological) 10107-H02H
# [2] = molecular target: T2, CAIX-expressing human HT-29 colorectal cancer cells (Homo sapiens, UniProt Q16790); test: FACS binding assay (IC50 determination, competition with tracer 3BP-2776 or 3BP-4149); conditions: 4° C., 1 hour, read-out: pIC50 category (activity) (converted)
# T2 construct: CAIX-expressing human HT-29 colorectal cancer cells; host or cells: HT-29 human colorectal cancer cells
# How it was run: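 HT-29 cells in FACS buffer (PBS, 1% FCS) at 500.000 cells/ml were exposed to compounds competing with a labelled tracer, with biotinylated compounds detected by 1 μg/mL APC-streptavidin for 30 min on ice. APC/Cy5 median fluorescence was read by flow cytometry and IC50 derived by 4PL fit.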
# [3] = FACS competition on HT-29 cells, Tracer ID 3BP-2776 (10 nM, biotin-labeled)
# [4] = FACS binding assay, HT-29 cells, competition with tracer 3BP-2776 (10 nM, biotin-labeled)
# [5] = FACS binding assay, HT-29 cells, competition with tracer 3BP-4149 (3 nM, Cy5-labeled)
t1/2 category (activity) [1],Kd [1],"IC50 [2, 3]","IC50 [2, 4]","IC50 [2, 5]",Structure (SMILES)
B (t1/2 between 5.1 and 15.0 minutes),< 10 nM,< 10 nM,,,CC(=O)N[C@H](C(=O)N[C@@H](Cc1ccc(O)cc1)C(=O)N[C@H]1CSCc2cccc(c2)CSC[C@@H](C(N)=O)NC(=O)[C@H](CCC(N)=O)NC(=O)[C@H](Cc2c[nH]c3ccccc23)NC(=O)[C@H]([C@@H](C)O)NC(=O)[C@H](CC(C)C)NC(=O)[C@H](Cc2c[nH]c3ccc(Cl)cc23)NC(=O)[C@H](CC(=O)O)NC(=O)CN(C)C(=O)[C@H](CCC(=O)O)NC1=O)C(C)C [3BP-3289] (Ac-VYCE[Sar]D[Trp(5-Cl)]LTWQC-NH2; linker 3-12 via mXylylene)
A (t1/2>15.0 minutes),< 10 nM,,< 10 nM,,CC(C)C[C@@H]1NC(=O)[C@H](Cc2c[nH]c3ccccc23)NC(=O)[C@H](CS(=O)(=O)Cc2ccccc2)NC(=O)[C@H]2CCCN2C(=O)[C@H](CCC(=O)O)NC(=O)[C@@H](NC(=O)[C@H](Cc2ccc(O)cc2)NC(=O)[C@@H](NC(=O)CN2CCC(NC(=O)CN3CCN(CC(=O)O)CCN(CC(=O)O)CCN(CC(=O)O)CC3)CC2)C(C)C)CSCc2cccc(c2)CSC[C@@H](C(N)=O)NC(=O)[C@H](CO)NC(=O)[C@H](Cc2c[nH]c3ccccc23)NC(=O)[C@H]([C@@H](C)O)NC1=O [3BP-4123] ({DOTA}-[X2]VYCE[dP][X19]WLTWSC-NH2; linker 4-13 via mXylylene)
A (t1/2>15.0 minutes),< 10 nM,,,< 10 nM,CC(C)C[C@@H]1NC(=O)[C@H](Cc2cccc(NC(=O)CCS(N)(=O)=O)c2)NC(=O)[C@H](CC(=O)O)NC(=O)[C@H]2CCCN2C(=O)[C@H](CCC(=O)O)NC(=O)[C@@H](NC(=O)[C@H](Cc2ccc(O)cc2)NC(=O)[C@@H](NC(=O)CN2CCC(NC(=O)CN3CCN(CC(=O)O)CCN(CC(=O)O)CCN(CC(=O)O)CC3)CC2)C(C)C)CSCc2cccc(c2)CSC[C@@H](C(N)=O)NC(=O)[C@H](CO)NC(=O)[C@H](Cc2c[nH]c3ccccc23)NC(=O)[C@H]([C@@H](C)O)NC1=O [3BP-4407] ({DOTA}-[X2]VYCE[dP]D[X21]LTWSC-NH2; linker 4-13 via mXylylene)
C (t1/2 between 2.1 and 5.0 minutes),< 10 nM,,,10 to 79.4 nM,CC(C)C[C@@H]1NC(=O)[C@H](Cc2cccc(NC(=O)COCC(=O)O)c2)NC(=O)[C@H](CC(=O)O)NC(=O)[C@H]2CCCN2C(=O)[C@H](CCC(=O)O)NC(=O)[C@@H](NC(=O)[C@H](Cc2ccc(O)cc2)NC(=O)[C@@H](NC(=O)CN2CCC(NC(=O)CN3CCN(CC(=O)O)CCN(CC(=O)O)CCN(CC(=O)O)CC3)CC2)C(C)C)CSCc2cccc(c2)CSC[C@@H](C(N)=O)NC(=O)[C@H](CO)NC(=O)[C@H](Cc2c[nH]c3ccccc23)NC(=O)[C@H]([C@@H](C)O)NC1=O [3BP-4368] ({DOTA}-[X2]VYCE[dP]D[X15]LTWSC-NH2; linker 4-13 via mXylylene)
A (t1/2>15.0 minutes),< 10 nM,,,< 10 nM,CC(C)C[C@@H]1NC(=O)[C@H](Cc2cccc(NC(=O)CCCS(N)(=O)=O)c2)NC(=O)[C@H](CC(=O)O)NC(=O)[C@H]2CCCN2C(=O)[C@H](CCC(=O)O)NC(=O)[C@@H]2CSCc3cccc(c3)CSC[C@@H](C(N)=O)NC(=O)[C@H](CNC(=O)C[C@H](NC(=O)[C@@H](NC(=O)CN3CCC(NC(=O)CN4CCN(CC(=O)O)CCN(CC(=O)O)CCN(CC(=O)O)CC4)CC3)C(C)C)C(=O)N2)NC(=O)[C@H](Cc2c[nH]c3ccccc23)NC(=O)[C@H]([C@@H](C)O)NC1=O [3BP-4445] ({DOTA}-[X2]VDCE[dP]D[Phe(3-NHCO(CH2)3SO2NH2)]LTW[Dap]C-NH2; lactam 3-12; linker 4-13 via mXylylene)
D (t1/2≤2.0 minutes),< 10 nM,,< 10 nM,,CC(C)C[C@@H]1NC(=O)[C@H](Cc2c[nH]c3ccccc23)NC(=O)[C@H](CC(=O)O)NC(=O)[C@H]2CCCN2C(=O)[C@H](CCC(=O)O)NC(=O)[C@@H]2CSCc3cccc(c3)CSC[C@@H](C(N)=O)NC(=O)[C@H](CNC(=O)C[C@H](NC(=O)c3cccc(CNC(=O)CN4CCN(CC(=O)O)CCN(CC(=O)O)CCN(CC(=O)O)CC4)c3)C(=O)N2)NC(=O)[C@H](Cc2c[nH]c3ccccc23)NC(=O)[C@H]([C@@H](C)O)NC1=O [3BP-4260] ({DOTA-3Amb}-DCE[dP]DWLTW[Dap]C-NH2; lactam 1-10; linker 2-11 via mXylylene)
A (t1/2>15.0 minutes),< 10 nM,,,10 to 79.4 nM,CC(C)C[C@@H]1NC(=O)[C@H](Cc2c[nH]c3ccccc23)NC(=O)[C@H](CCC(=O)NCc2ccc3cn[nH]c3c2)NC(=O)[C@H]2CCCN2C(=O)[C@H](CCC(=O)O)NC(=O)[C@@H](NC(=O)[C@H](Cc2ccc(O)cc2)NC(=O)[C@@H](NC(=O)CN2CCC(NC(=O)CN3CCN(CC(=O)O)CCN(CC(=O)O)CCN(CC(=O)O)CC3)CC2)C(C)C)CSCc2cccc(c2)CSC[C@@H](C(N)=O)NC(=O)[C@H](CO)NC(=O)[C@H](Cc2c[nH]c3ccccc23)NC(=O)[C@H]([C@@H](C)O)NC1=O [3BP-4387] ({DOTA}-[X2]VYCE[dP]E(X29)WLTWSC-NH2; linker 4-13 via mXylylene)
C (t1/2 between 2.1 and 5.0 minutes),< 10 nM,< 10 nM,,,CC(=O)N[C@H](C(=O)N[C@@H](Cc1ccc(O)cc1)C(=O)N[C@H]1CSCc2cccc(c2)CSC[C@@H](C(N)=O)NC(=O)[C@H](CCC(N)=O)NC(=O)[C@H](Cc2c[nH]c3ccccc23)NC(=O)[C@H]([C@@H](C)O)NC(=O)[C@H](CC(C)C)NC(=O)[C@H](Cc2csc3ccccc23)NC(=O)[C@H](CC(=O)O)NC(=O)CN(C)C(=O)[C@H](CCC(=O)O)NC1=O)C(C)C [3BP-3311] (Ac-VYCE[Sar]D[Bta]LTWQC-NH2; linker 3-12 via mXylylene)
B (t1/2 between 5.1 and 15.0 minutes),< 10 nM,,,10 to 79.4 nM,CC(=O)N[C@H](CC(=O)O)C(=O)Nc1cccc(C[C@H]2NC(=O)[C@H](CC(=O)O)NC(=O)[C@H]3CCCN3C(=O)[C@H](CCC(=O)O)NC(=O)[C@@H](NC(=O)[C@H](Cc3ccc(O)cc3)NC(=O)[C@@H](NC(=O)CN3CCC(NC(=O)CN4CCN(CC(=O)O)CCN(CC(=O)O)CCN(CC(=O)O)CC4)CC3)C(C)C)CSCc3cccc(c3)CSC[C@@H](C(N)=O)NC(=O)[C@H](CO)NC(=O)[C@H](Cc3c[nH]c4ccccc34)NC(=O)[C@H]([C@@H](C)O)NC(=O)[C@H](CC(C)C)NC2=O)c1 [3BP-4364] ({DOTA}-[X2]VYCE[dP]D[X32]LTWSC-NH2; linker 4-13 via mXylylene)
,< 10 nM,< 10 nM,,,CC(=O)N[C@H](C(=O)N[C@@H](Cc1ccc(O)cc1)C(=O)N[C@H]1CSCc2cccc(c2)CSC[C@@H](C(N)=O)NC(=O)[C@H](C)NC(=O)[C@H](Cc2c[nH]c3ccccc23)NC(=O)[C@H]([C@@H](C)O)NC(=O)[C@H](CC(C)C)NC(=O)[C@H](Cc2c[nH]c3ccccc23)NC(=O)[C@H](CC(=O)O)NC(=O)[C@H]2CCCCN2C(=O)[C@H](CCC(=O)O)NC1=O)C(C)C [3BP-3283] (Ac-VYCE[dPip]DWLTWAC-NH2; linker 3-12 via mXylylene)
